# Assay results from patent publication US7838498B2, “Benzylic glycoside derivatives and methods of use” (Theracos, Inc., priority 2007, dated 2010).
# Assays:
# human SGLT1 = target: T1, human SGLT1 (Homo sapiens, UniProt P13866); test: Methyl-α-D-[U-14C]glucopyranoside uptake assay, COS-7 cells expressing human SGLT1; format: cell-based; conditions: COS-7 cells expressing human SGLT1, 2 h incubation
# T1 construct: Full-length human SGLT1 cDNA on pDream2.1 expression vector was obtained from GenScript Corporation; host or cells: COS-7 cells (American Type Culture Collection)
# T1 sequence (P13866 1-664): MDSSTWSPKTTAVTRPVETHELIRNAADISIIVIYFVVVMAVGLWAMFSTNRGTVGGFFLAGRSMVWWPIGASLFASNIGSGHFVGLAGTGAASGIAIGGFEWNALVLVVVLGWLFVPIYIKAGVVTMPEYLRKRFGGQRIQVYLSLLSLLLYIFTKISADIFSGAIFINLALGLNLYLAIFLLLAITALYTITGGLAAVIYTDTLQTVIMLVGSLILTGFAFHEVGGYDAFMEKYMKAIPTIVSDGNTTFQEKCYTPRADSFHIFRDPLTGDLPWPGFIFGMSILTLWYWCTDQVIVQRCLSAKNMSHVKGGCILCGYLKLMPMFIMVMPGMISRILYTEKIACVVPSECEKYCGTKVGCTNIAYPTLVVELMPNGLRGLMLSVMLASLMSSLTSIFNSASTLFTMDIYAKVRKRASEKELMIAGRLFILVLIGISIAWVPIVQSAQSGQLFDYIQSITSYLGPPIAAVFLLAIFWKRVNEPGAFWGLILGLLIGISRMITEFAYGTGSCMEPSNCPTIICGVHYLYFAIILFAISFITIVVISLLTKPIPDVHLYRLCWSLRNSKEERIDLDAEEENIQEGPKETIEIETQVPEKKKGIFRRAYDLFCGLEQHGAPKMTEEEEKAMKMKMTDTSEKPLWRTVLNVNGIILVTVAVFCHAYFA
# Method: Full-length human SGLT1 cDNA on pDream2.1 expression vector was obtained from GenScript Corporation and propagated in Escherichia coli strain DH5α using Luria-Bertani (LB) medium containing ampicillin. Plasmid DNA was isolated using the QIAGEN Plasmid Midi Kit (QIAGEN Inc.). […] Transfected cells were stored in DMEM containing 10% dimethyl sulfoxide (DMSO) at −80° C.
# (§1) Cells expressing SGLT1 or SGLT2 were seeded on 96-well ScintiPlate scintillating plates (PerkinElmer, Inc.) in DMEM containing 10% FBS (1×10^5 cells per well in 100 μL medium) incubated at 37° C. under 5% CO2 for 48 h prior to the assay. Cells were washed twice with 150 μL of either sodium buffer (137 mM NaCl, 5.4 mM KCl, 2.8 mM CaCl2, 1.2 mM MgCl2, 10 mM tris(hydroxymethyl)aminomethane/N2-hydroxyethylpiperazine-N′-ethanesulfonic acid [Tris/Hepes], pH 7.2) or sodium-free buffer (137 mM N-methyl-glucamine, 5.4 mM KCl, 2.8 mM CaCl2, 1.2 mM MgCl2, 10 mM Tris/Hepes, pH 7.2). Test compound in 50 μL each of sodium or sodium-free buffer containing 40 μCi/L methyl-α-D-[U-^14C]glucopyranoside (Amersham Biosciences/GE Healthcare), either with (symbols in parentheses) or without (symbols without parentheses) 25% human serum, was added per well of a 96-well plate and incubated at 37° C. with shaking for either 2 h (SGLT1 assay) or 1.5 h (SGLT2 assay). Cells were washed twice with 150 μL of wash buffer (137 mM N-methylglucamine, 10 mM Tris/Hepes, pH 7.2) and methyl-α-D-[U-^14C]glucopyranoside uptake was quantitated using a TopCount scintillation counter (PerkinElmer, Inc.). Sodium-dependent glucopyranoside uptake was measured by subtracting the values obtained with sodium-free buffer from those obtained using sodium buffer (average of triplicate determinations).
# human SGLT2 = target: T2, human SGLT2 (Homo sapiens, UniProt P31639); test: Methyl-α-D-[U-14C]glucopyranoside uptake assay, cells stably expressing human SGLT2; format: cell-based; conditions: HEK293.ETN cells expressing human SGLT2, 1.5 h incubation
# T2 construct: A full-length cDNA clone expressing human SGLT2 (GenScript Corporation) was subcloned
# T2 sequence (P31639 1-672): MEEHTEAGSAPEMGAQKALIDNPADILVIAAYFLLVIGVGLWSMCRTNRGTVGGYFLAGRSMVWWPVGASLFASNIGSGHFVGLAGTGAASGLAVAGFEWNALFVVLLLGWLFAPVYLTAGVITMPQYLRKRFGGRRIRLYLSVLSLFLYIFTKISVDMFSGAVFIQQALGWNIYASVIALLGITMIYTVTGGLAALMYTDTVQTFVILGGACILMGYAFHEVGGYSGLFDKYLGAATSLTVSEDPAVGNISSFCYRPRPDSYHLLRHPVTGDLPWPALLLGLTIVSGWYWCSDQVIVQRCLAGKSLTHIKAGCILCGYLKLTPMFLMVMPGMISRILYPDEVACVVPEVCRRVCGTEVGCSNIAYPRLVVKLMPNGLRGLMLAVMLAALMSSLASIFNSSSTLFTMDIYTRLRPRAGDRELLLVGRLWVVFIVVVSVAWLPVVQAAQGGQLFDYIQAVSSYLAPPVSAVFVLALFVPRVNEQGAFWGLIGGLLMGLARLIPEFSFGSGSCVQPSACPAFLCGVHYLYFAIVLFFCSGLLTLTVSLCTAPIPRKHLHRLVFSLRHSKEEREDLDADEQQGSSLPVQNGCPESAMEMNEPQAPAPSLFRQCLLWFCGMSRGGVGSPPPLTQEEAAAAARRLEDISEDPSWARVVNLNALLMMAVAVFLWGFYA
# Description: A full-length cDNA clone expressing human SGLT2 (GenScript Corporation) was subcloned into […] and Not I sites of pEAK15 expression vector. Clones harboring the cDNA inserts were identified by restriction analysis.
# Plasmid containing human SGLT2 was linearized with Nsi I and purified by agarose gel electrophoresis. Using Lipofectamine 2000 Transfection Reagent (Invitrogen Corporation), DNA was transfected into HEK293.ETN cells and cultured in Dulbecco's Modified Eagle Medium (DMEM) containing 10% fetal bovine serum (FBS) at 37° C. under 5% CO2 for 24 h. Transfectants were selected in the same growth medium supplemented with puromycin (Invitrogen Corporation) for two weeks. Puromycin-resistant cells were recovered and seeded on a fresh 96-well plate (single cell per well) and cultured in the presence of puromycin until cells became confluent. Puromycin-resistant clones were evaluated for SGLT2 activity in the methyl-α-D-[U-^14C]glucopyranoside uptake assay described below.
# as §1
# [1] = with 25% human serum (symbols in parentheses)
# [2] = without human serum (symbols without parentheses)
SMILES,IC50 (human SGLT1; [1]) [nM],IC50 (human SGLT2; [1]) [nM],IC50 (human SGLT1; [2]) [nM],IC50 (human SGLT2; [2]) [nM]
"CCc1ccc(Cc2cc([C@@H]3O[C@H](CO)[C@@H](O)[C@H](O)[C@H]3O)c(COCCO)cc2Cl)cc1 [Compound O, (2S,3R,4R,5S,6R)-2-(4-chloro-5-(4-ethylbenzyl)-2-((2-hydroxyethoxy)methyl)phenyl)-6-(hydroxymethyl)tetrahydro-2H-pyran-3,4,5-triol]",–,–,1000 to 10000,< 1000
"CCc1ccc(Cc2cc([C@@H]3O[C@H](CO)[C@@H](O)[C@H](O)[C@H]3O)c(OCCOC(F)(F)F)cc2Cl)cc1 [Compound BQ, (2S,3R,4R,5S,6R)-2-(4-chloro-5-(4-ethylbenzyl)-2-(2-(trifluoromethoxy)ethoxy)phenyl)-6-(hydroxymethyl)tetrahydro-2H-pyran-3,4,5-triol]",> 10000,< 1000,–,–
"C=CCOCCOc1cc(Cl)c(Cc2ccc(CC)cc2)cc1[C@@H]1O[C@H](CO)[C@@H](O)[C@H](O)[C@H]1O [Compound AW, (2S,3R,4R,5S,6R)-2-(2-(2-(allyloxy)ethoxy)-4-chloro-5-(4-ethylbenzyl)phenyl)-6-(hydroxymethyl)tetrahydro-2H-pyran-3,4,5-triol]",–,–,> 10000,< 1000
"CCc1ccc(Cc2cc([C@@H]3O[C@H](CO)[C@@H](O)[C@H](O)[C@H]3O)c(COCC(F)F)cc2Cl)cc1 [Compound R, (2S,3R,4R,5S,6R)-2-(4-chloro-2-((2,2-difluoroethoxy)methyl)-5-(4-ethylbenzyl)phenyl)-6-(hydroxymethyl)tetrahydro-2H-pyran-3,4,5-triol]",–,–,> 10000,< 1000
"CCc1ccc(Cc2cc([C@@H]3O[C@H](CO)[C@@H](O)[C@H](O)[C@H]3O)c(COCCCO)cc2Cl)cc1 [Compound AL, (2S,3R,4R,5S,6R)-2-(4-chloro-5-(4-ethylbenzyl)-2-((3-hydroxypropoxy)methyl)phenyl)-6-(hydroxymethyl)tetrahydro-2H-pyran-3,4,5-triol]",–,–,> 10000,< 1000
"CCc1ccc(Cc2cc([C@@H]3O[C@H](CO)[C@@H](O)[C@H](O)[C@H]3O)c(CCOCC(F)F)cc2Cl)cc1 [Compound AI, (2S,3R,4R,5S,6R)-2-(4-chloro-2-(2-(2,2-difluoroethoxy)ethyl)-5-(4-ethylbenzyl)phenyl)-6-(hydroxymethyl)tetrahydro-2H-pyran-3,4,5-triol]",–,–,> 10000,< 1000
"CCc1ccc(Cc2cc([C@@H]3O[C@H](CO)[C@@H](O)[C@H](O)[C@H]3O)c(COCCOC)cc2Cl)cc1 [Compound S, (2S,3R,4R,5S,6R)-2-(4-chloro-5-(4-ethylbenzyl)-2-((2-methoxyethoxy)methyl)phenyl)-6-(hydroxymethyl)tetrahydro-2H-pyran-3,4,5-triol]",–,–,> 10000,< 1000
"CCc1ccc(Cc2cc([C@@H]3O[C@H](CO)[C@@H](O)[C@H](O)[C@H]3O)c(COCCF)cc2Cl)cc1 [Compound BZ, (2S,3R,4R,5S,6R)-2-(4-chloro-5-(4-ethylbenzyl)-2-((2-fluoroethoxy)methyl)phenyl)-6-(hydroxymethyl)tetrahydro-2H-pyran-3,4,5-triol]",–,–,> 10000,< 1000

# Next, values leading:
IC50 (human SGLT1; [1]) [nM],IC50 (human SGLT2; [1]) [nM],IC50 (human SGLT1; [2]) [nM],IC50 (human SGLT2; [2]) [nM],SMILES
> 10000,< 1000,–,–,"CC#CCOCCCc1cc(Cl)c(Cc2ccc(OCC)cc2)cc1[C@@H]1O[C@H](CO)[C@@H](O)[C@H](O)[C@H]1O [Compound BO, (2S,3R,4R,5S,6R)-2-(2-(3-(but-2-ynyloxy)propyl)-4-chloro-5-(4-ethoxybenzyl)phenyl)-6-(hydroxymethyl)tetrahydro-2H-pyran-3,4,5-triol]"
–,–,1000 to 10000,< 1000,"CCc1ccc(Cc2cc([C@@H]3O[C@H](CO)[C@@H](O)[C@H](O)[C@H]3O)c(CCOCCO)cc2Cl)cc1 [Compound AG, (2S,3R,4R,5S,6R)-2-(4-chloro-5-(4-ethylbenzyl)-2-(2-(2-hydroxyethoxy)ethyl)phenyl)-6-(hydroxymethyl)tetrahydro-2H-pyran-3,4,5-triol]"
> 10000,< 1000,–,–,"C#CCOCc1cc(Cl)c(Cc2ccc(OCC)cc2)cc1[C@@H]1O[C@H](COC(C)=O)[C@@H](O)[C@H](O)[C@H]1O [Compound CD, ((2R,3S,4R,5R,6S)-6-(4-chloro-5-(4-ethoxybenzyl)-2-((prop-2-ynyloxy)methyl)phenyl)-3,4,5-trihydroxytetrahydro-2H-pyran-2-yl)methyl acetate]"
> 10000,< 1000,–,–,"CC#CCOCc1cc(Cl)c(Cc2ccc(OC)cc2)cc1[C@@H]1O[C@H](CO)[C@@H](O)[C@H](O)[C@H]1O [Compound BA, (2S,3R,4R,5S,6R)-2-(2-((but-2-ynyloxy)methyl)-4-chloro-5-(4-methoxybenzyl)phenyl)-6-(hydroxymethyl)tetrahydro-2H-pyran-3,4,5-triol]"
–,–,> 10000,< 1000,"C#CCOCc1cc(Cl)c(Cc2ccc(CC)cc2)cc1[C@@H]1O[C@H](CO)[C@@H](O)[C@H](O)[C@H]1O [Compound N, (2S,3R,4R,5S,6R)-2-(4-chloro-5-(4-ethylbenzyl)-2-((prop-2-ynyloxy)methyl)phenyl)-6-(hydroxymethyl)tetrahydro-2H-pyran-3,4,5-triol]"
–,–,> 10000,< 1000,"C=CCOCCc1cc(Cl)c(Cc2ccc(CC)cc2)cc1[C@@H]1O[C@H](CO)[C@@H](O)[C@H](O)[C@H]1O [Compound AD, (2S,3R,4R,5S,6R)-2-(2-(2-(allyloxy)ethyl)-4-chloro-5-(4-ethylbenzyl)phenyl)-6-(hydroxymethyl)tetrahydro-2H-pyran-3,4,5-triol]"
–,–,> 10000,< 1000,"C#CCOCCc1cc(Cl)c(Cc2ccc(OCC)cc2)cc1[C@@H]1O[C@H](CO)[C@@H](O)[C@H](O)[C@H]1O [Compound AO, (2S,3R,4R,5S,6R)-2-(4-chloro-5-(4-ethoxybenzyl)-2-(2-(prop-2-ynyloxy)ethyl)phenyl)-6-(hydroxymethyl)tetrahydro-2H-pyran-3,4,5-triol]"
